Format in all cases: cell-based
The target of experiment [1] is T1, recombinant rat GluN1/GluN2B (Rattus norvegicus, UniProt P35439+Q00960).
T1 construct: expressed in transfected cells; host or cells: Xenopus laevis oocytes (Ecocyte) injected with in vitro transcribed cRNA
As to the kind of experiment: Two-electrode voltage-clamp (TEVC) recordings in Xenopus laevis oocytes, GluN1/GluN2B. As to conditions: for EC50: fitted when potentiation at 30 μM exceeded 120%, Tables 3, 5-7, read-out: EC50 (max.) (μM %) GluN2B: fitted EC50. Here is the method:
(§1) Data are from between 3-26 oocytes from 2-5 frogs for each compound and receptor tested.
(§2) Two-electrode voltage-clamp recordings were performed in Xenopus laevis oocytes (Ecocyte) expressing recombinant rat GluN1/GluN2A, GluN1/GluN2B, GluN1/GluN2C, GluN1/GluN2D. cRNA was transcribed in vitro (Ambion), diluted with nuclease free water, and injected at a ratio of 1:2 GluN1:GluN2 (5-10 ng total cRNA). The oocytes were kept in Barth's solution comprised of (in mM) 88 NaCl, 5 Tris-HCl, 2.4 NaHCO3, 1 KCl, 0.84 MgSO4, 0.41 CaCl2, and 0.33 Ca(NO3)2 at pH 7.4 at 15-17° C. for two to five days before experiments. Oocytes were placed into a perfusion chamber and continually washed with recording solution containing (in mM) 90 NaCl, 1.0 KCl, 0.5 BaCl2, 0.005 EDTA, and 10 HEPES at pH 7.4 (23° C.). Voltage clamp recordings were conducted at a holding potential of −40 mV. All compounds were made as 20 mM stock solutions in DMSO and dissolved to reach the final concentration in recording solution. Final DMSO content was 0.05-0.5% (vol/vol). Some oocytes expressing GluN1/GluN2A were pretreated with […] BAPTA-AM for 10 minutes or injected with […] of 2 mM K-BAPTA to prevent gradual run-up of the current response.
(Two-electrode voltage clamp holds a large cell at a set potential and records current.)

In experiment [2] the target is T2, recombinant rat GluN1/GluN2B (Rattus norvegicus, UniProt Q00960).
T2 construct: expressed in transfected cells; host or cells: Xenopus laevis oocytes (Ecocyte) injected with in vitro transcribed cRNA
The experiment is described as above. The conditions noted are these: for I10 μM/Icontrol (mean ± SEM, %) GluN2B: 10 μM compound, Table 3; for I30 μM/Icontrol (mean ± SEM, %) GluN2B: 30 μM compound, Tables 5-7. Here is the method: as §1, §2

In experiment [3] the target is T3, recombinant rat GluN1/GluN2C (Rattus norvegicus, UniProt P35439+Q00961).
T3 construct: expressed in transfected cells; host or cells: Xenopus laevis oocytes (Ecocyte) injected with in vitro transcribed cRNA
As to the kind of experiment: Two-electrode voltage-clamp (TEVC) recordings in Xenopus laevis oocytes, GluN1/GluN2C. The conditions noted are these: for EC50: fitted when potentiation at 30 μM exceeded 120%, Tables 3, 5-7, read-out: EC50 (max.) (μM %) GluN2C: fitted EC50. As to the method:
as §1, §2

The target of experiment [4] is T4, recombinant rat GluN1/GluN2C (Rattus norvegicus, UniProt Q00961).
T4 construct: expressed in transfected cells; host or cells: Xenopus laevis oocytes (Ecocyte) injected with in vitro transcribed cRNA
The experiment is described as above. As to conditions: for I10 μM/Icontrol (mean ± SEM, %) GluN2C: 10 μM compound, Table 3; for I30 μM/Icontrol (mean ± SEM, %) GluN2C: 30 μM compound, Tables 5-7. Here is the method:
as §1, §2

The target of experiment [5] is T5, recombinant rat GluN1/GluN2D (Rattus norvegicus, UniProt Q62645).
T5 construct: expressed in transfected cells; host or cells: Xenopus laevis oocytes (Ecocyte) injected with in vitro transcribed cRNA
As to the kind of experiment: Two-electrode voltage-clamp (TEVC) recordings in Xenopus laevis oocytes, GluN1/GluN2D. As to conditions: for I10 μM/Icontrol (mean ± SEM, %) GluN2D: 10 μM compound, Table 3; for I30 μM/Icontrol (mean ± SEM, %) GluN2D: 30 μM compound, Tables 5-7. Here is the method: as §1, §2

Experiment [6] has as its target T6, recombinant rat GluN1/GluN2D (Rattus norvegicus, UniProt P35439+Q62645).
T6 construct: expressed in transfected cells; host or cells: Xenopus laevis oocytes (Ecocyte) injected with in vitro transcribed cRNA
The experiment is described as above. As to the method:
as §1, §2

In experiment [7] the target is T7, recombinant rat GluN1/GluN2A (Rattus norvegicus, UniProt Q00959).
T7 construct: expressed in transfected cells; host or cells: Xenopus laevis oocytes (Ecocyte) injected with in vitro transcribed cRNA
The experiment is described as follows: Two-electrode voltage-clamp (TEVC) recordings in Xenopus laevis oocytes, GluN1/GluN2A. As to conditions: maximum potentiation, response without modulator = 100%. Here is the method:
as §2

Where [8] appears, read: maximum potentiation, response without modulator = 100%, read-out: GluN2B EC50 (μM)/Max %: Max %.
Where [9] appears, read: percentage of the initial glutamate (100 μM) and glycine (30 μM) current, read-out: EC50 (max.) (μM %) GluN2B: fitted maximum response.
[10] abbreviates: maximum potentiation, response without modulator = 100%, read-out: GluN2C EC50 (μM)/Max %: Max %.
The mark [11] stands for this setting: percentage of the initial glutamate (100 μM) and glycine (30 μM) current, read-out: EC50 (max.) (μM %) GluN2C: fitted maximum response.
Setting [12] is: fitted when potentiation at 30 μM exceeded 120%, Tables 3, 5-7, read-out: EC50 (max.) (μM %) GluN2D: fitted EC50.
[13] abbreviates: percentage of the initial glutamate (100 μM) and glycine (30 μM) current, read-out: EC50 (max.) (μM %) GluN2D: fitted maximum response.
Where [14] appears, read: maximum potentiation, response without modulator = 100%, read-out: GluN2D EC50 (μM)/Max %: Max %.
Setting [15] is: maximum potentiation, response without modulator = 100%.

Like-named read-outs stand apart in the source and are kept apart here.

T3 sequence (Q00961 20-1237, other chains not shown): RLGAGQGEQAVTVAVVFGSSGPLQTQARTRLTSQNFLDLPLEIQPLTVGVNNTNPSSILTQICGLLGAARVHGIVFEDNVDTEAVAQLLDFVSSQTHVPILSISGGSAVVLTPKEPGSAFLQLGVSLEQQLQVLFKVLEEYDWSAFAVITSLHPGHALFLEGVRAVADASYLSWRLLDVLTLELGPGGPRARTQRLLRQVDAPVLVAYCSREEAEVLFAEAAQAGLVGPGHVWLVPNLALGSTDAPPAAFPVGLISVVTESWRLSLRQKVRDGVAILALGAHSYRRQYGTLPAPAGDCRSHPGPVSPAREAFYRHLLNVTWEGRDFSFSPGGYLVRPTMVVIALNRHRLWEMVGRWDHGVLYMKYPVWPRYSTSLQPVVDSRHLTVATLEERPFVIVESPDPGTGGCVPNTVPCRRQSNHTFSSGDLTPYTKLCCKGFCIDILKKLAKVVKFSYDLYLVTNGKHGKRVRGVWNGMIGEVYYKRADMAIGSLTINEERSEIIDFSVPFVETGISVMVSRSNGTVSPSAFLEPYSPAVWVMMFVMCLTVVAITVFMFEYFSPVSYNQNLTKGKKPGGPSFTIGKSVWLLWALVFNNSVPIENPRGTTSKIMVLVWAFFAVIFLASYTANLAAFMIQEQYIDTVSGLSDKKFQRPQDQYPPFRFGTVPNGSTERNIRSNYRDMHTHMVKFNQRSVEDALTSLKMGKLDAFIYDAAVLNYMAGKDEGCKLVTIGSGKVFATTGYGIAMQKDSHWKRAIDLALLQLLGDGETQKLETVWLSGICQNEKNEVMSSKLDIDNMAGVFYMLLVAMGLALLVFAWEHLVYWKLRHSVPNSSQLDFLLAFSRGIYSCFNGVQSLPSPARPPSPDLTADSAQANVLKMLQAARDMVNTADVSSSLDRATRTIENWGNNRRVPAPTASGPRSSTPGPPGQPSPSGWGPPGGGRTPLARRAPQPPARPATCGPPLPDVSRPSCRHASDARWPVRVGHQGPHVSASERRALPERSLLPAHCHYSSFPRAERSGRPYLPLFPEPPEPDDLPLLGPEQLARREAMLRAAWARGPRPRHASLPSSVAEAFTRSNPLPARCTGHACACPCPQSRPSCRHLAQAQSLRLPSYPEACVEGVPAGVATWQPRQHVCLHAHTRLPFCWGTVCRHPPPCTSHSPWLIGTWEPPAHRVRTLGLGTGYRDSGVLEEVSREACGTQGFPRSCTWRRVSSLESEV
T4 sequence (Q00961 20-1237, other chains not shown): as above
T6 sequence (Q62645 28-1323, other chains not shown): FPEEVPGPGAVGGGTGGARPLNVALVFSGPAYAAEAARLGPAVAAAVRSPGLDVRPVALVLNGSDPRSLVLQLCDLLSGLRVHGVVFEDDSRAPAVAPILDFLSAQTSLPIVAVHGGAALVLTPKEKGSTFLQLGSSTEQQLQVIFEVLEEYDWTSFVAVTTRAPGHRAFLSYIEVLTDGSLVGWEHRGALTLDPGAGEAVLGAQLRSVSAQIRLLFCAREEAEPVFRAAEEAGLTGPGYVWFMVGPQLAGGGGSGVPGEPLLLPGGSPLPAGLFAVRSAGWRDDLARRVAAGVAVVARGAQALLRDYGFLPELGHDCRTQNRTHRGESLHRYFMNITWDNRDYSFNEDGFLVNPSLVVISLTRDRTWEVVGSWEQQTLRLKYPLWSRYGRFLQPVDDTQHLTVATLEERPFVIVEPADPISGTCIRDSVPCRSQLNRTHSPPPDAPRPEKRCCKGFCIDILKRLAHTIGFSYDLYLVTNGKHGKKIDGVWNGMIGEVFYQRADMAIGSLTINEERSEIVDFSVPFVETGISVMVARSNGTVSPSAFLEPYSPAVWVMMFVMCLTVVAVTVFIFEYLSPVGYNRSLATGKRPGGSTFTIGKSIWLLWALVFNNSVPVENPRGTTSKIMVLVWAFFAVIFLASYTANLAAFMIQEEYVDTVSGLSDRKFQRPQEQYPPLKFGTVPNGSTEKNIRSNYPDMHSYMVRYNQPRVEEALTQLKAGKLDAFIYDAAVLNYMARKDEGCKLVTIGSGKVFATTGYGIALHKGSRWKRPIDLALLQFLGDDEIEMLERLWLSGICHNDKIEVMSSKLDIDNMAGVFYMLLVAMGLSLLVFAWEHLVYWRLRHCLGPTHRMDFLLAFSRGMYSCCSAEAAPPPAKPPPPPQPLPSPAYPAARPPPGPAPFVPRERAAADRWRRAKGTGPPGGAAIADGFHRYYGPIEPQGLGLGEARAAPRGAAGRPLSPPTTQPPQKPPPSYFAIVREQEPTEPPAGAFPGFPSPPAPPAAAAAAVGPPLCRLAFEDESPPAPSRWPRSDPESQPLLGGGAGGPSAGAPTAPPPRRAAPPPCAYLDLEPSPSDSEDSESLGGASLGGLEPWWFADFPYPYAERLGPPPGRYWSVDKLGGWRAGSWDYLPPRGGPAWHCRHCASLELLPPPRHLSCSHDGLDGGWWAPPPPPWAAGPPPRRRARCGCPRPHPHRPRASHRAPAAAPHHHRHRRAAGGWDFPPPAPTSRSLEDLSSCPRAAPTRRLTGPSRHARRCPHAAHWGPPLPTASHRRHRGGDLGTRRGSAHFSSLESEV
T5 sequence (Q62645 28-1323, other chains not shown): as above
T7 sequence (Q00959 23-1464, other chains not shown): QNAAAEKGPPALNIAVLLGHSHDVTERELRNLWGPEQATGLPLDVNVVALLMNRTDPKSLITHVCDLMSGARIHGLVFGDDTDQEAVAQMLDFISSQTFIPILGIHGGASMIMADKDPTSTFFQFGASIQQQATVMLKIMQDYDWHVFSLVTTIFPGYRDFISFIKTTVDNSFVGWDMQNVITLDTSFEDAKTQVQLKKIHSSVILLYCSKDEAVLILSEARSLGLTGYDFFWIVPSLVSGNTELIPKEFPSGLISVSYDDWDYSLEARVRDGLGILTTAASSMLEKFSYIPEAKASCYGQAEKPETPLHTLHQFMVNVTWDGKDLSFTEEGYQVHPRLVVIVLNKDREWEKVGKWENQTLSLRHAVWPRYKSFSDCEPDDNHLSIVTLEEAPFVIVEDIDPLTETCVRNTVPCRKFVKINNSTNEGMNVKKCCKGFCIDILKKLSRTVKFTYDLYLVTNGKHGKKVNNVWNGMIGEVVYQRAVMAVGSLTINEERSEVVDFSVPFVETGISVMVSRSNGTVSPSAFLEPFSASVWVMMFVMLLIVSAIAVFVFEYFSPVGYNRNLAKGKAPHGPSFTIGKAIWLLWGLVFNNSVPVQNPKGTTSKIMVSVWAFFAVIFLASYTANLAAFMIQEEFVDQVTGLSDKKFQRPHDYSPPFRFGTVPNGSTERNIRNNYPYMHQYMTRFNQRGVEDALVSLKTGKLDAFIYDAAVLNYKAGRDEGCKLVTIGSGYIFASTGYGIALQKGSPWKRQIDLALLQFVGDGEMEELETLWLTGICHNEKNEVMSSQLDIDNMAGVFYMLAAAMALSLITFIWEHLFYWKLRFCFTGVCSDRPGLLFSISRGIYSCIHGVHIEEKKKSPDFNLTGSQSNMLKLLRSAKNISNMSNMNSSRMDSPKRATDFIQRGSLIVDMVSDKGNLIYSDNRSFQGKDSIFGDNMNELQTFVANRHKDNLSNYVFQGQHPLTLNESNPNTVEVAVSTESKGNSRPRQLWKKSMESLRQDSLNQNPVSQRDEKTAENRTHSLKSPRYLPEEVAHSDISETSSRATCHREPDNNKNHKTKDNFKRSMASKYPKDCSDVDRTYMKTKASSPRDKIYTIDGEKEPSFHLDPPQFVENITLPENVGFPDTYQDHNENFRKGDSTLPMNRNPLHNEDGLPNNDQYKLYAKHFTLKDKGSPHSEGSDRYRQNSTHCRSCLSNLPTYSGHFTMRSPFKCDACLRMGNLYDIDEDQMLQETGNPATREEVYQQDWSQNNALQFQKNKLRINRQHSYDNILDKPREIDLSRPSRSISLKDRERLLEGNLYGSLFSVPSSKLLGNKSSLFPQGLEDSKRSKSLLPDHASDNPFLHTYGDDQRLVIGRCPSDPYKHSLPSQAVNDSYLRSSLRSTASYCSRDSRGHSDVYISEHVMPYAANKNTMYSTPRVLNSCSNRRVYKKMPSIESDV

With `COc1ccc(OCC2c3ccc(OC(C)C)cc3CCN2C(=O)c2cccc(Cl)c2)cc1` (centres unmarked) [1180-55], the EC50 in experiment [1] turned out to be 5 µM; in experiment [6] (EC50 & Max Effect: 2D (μM)) it was 2.9 µM; in experiment [6] (setting [12]) it was 4.3 µM. Moreover, the Emax in experiment [1] (setting [8]) was found to be 193%; in experiment [1] (setting [9]) it was 215%; in experiment [3] (setting [10]), 266%; in experiment [3] (setting [11]) it was 250%; in experiment [3] (read-out: EC50 & Max Effect: 2C Max (%)) it was 266%; in experiment [6] (setting [13]), 323%. Moreover, the “I10 μM/Icontrol (mean ± SEM, %) GluN2B” value in experiment [2] was found to be 191%. For the same compound, the “I10 μM/Icontrol (mean ± SEM, %) GluN2C” value in experiment [4] worked out at 231%. For the same compound, in experiment [5], the “I10 μM/Icontrol (mean ± SEM, %) GluN2D” value was 281%.

As for `COc1ccc(OCC2c3ccc(OC(C)C)cc3CCN2C(=O)c2cccc(F)c2)cc1` (centres unmarked) [1180-140], the Emax in experiment [1] (setting [8]) turned out to be 450%; in experiment [3] (setting [10]), 304%; in experiment [6] (setting [14]), 521%. Besides, the “GluN2A EC50 (μM)/Max %: Max %” value in experiment [7] turned out to be 159%.

`CCOc1ccc(OCC2c3ccc(OC(C)C)cc3CCN2C(=S)c2ccc(F)c(Cl)c2)cc1` (centres unmarked) [1180-165]: the “GluN2B EC50 (μM)/Max %: Max %” value in experiment [2] (setting [15]) is given as 226%. For the same compound, the “GluN2C EC50 (μM)/Max %: Max %” value in experiment [4] (setting [15]) is 162%. Besides, in experiment [7], the “GluN2A EC50 (μM)/Max %: Max %” value was 191%. Further, in experiment [5] (setting [15]), the “GluN2D EC50 (μM)/Max %: Max %” value came to 141%.

On to `COc1ccc(OCC2c3ccc(OC(C)C)cc3CCN2C(=S)c2cccc(F)c2)cc1` (centres unmarked) [1180-166], for which the Emax turned out to be 307% in experiment [1] (setting [8]), 233% in experiment [3] (setting [10]) and 200% in experiment [6] (setting [14]). Further, the “GluN2A EC50 (μM)/Max %: Max %” value in experiment [7] was 179%.

Consider `CCOc1ccc(OCC2c3ccc(OC(C)C)cc3CCN2C(=S)c2cccc(C(F)(F)F)c2)cc1` (centres unmarked) [1180-168], for which the EC50 in experiment [1] came out at 1 µM; in experiment [3], 0.33 µM. The Emax amounted to 171% in experiment [1] (setting [8]); 179% in experiment [1] (setting [9]); 138% in experiment [3] (setting [10]); 141% in experiment [3] (setting [11]); 128% in experiment [6] (setting [13]). The “I30 μM/Icontrol (mean ± SEM, %) GluN2B” value in experiment [2] was 185%. Besides, the “I30 μM/Icontrol (mean ± SEM, %) GluN2C” value in experiment [4] is 139%. The “I30 μM/Icontrol (mean ± SEM, %) GluN2D” value in experiment [5] worked out at 126%.

`COc1ccc(OC[C@H]2c3ccc(OC(C)C)cc3CCN2C(=O)c2cccc(Cl)c2)cc1` [(R)-(+)-1180-55]: the results for the EC50 in experiment [1] and in experiment [6] (setting [12]) were 5 µM and 1.3 µM, respectively. Further, the figures for the Emax in experiment [1] (setting [9]), in experiment [3] (setting [11]) and in experiment [6] (setting [13]) were 167%, 342% and 384%, respectively. Besides, the “I10 μM/Icontrol (mean ± SEM, %) GluN2B” value in experiment [2] is 150%. Also, the “I10 μM/Icontrol (mean ± SEM, %) GluN2C” value in experiment [4] is given as 323%. Moreover, the “I10 μM/Icontrol (mean ± SEM, %) GluN2D” value in experiment [5] was 345%.

As to `CCOc1ccc(OC[C@H]2c3ccc(OC(C)C)cc3CCN2C(=S)c2cccc(C(F)(F)F)c2)cc1` [(R)-(+)-1180-168], the EC50 in experiment [1] turned out to be 0.21 µM; in experiment [3], 0.24 µM; in experiment [6] (setting [12]), 0.3 µM. Besides, the Emax is 173% in experiment [1] (setting [9]), 182% in experiment [3] (setting [11]) and 160% in experiment [6] (setting [13]). The “I30 μM/Icontrol (mean ± SEM, %) GluN2B” value in experiment [2] is recorded as 156%. In addition, the “I30 μM/Icontrol (mean ± SEM, %) GluN2C” value in experiment [4] stood at 146%. Besides, the “I30 μM/Icontrol (mean ± SEM, %) GluN2D” value in experiment [5] came out at 157%.

Consider `COc1ccc(OC[C@@H]2c3ccc(OC(C)C)cc3CCN2C(=O)c2cccc(Cl)c2)cc1` [(S)-(−)-1180-55], for which the EC50 was 5.2 µM in experiment [1] and 4.5 µM in experiment [6] (setting [12]). Besides, the Emax in experiment [1] (setting [9]) came out at 307%; in experiment [3] (setting [11]), 360%; in experiment [6] (setting [13]) it was 350%. Moreover, the “I10 μM/Icontrol (mean ± SEM, %) GluN2B” value in experiment [2] was 269%. In addition, in experiment [4], the “I10 μM/Icontrol (mean ± SEM, %) GluN2C” value is given as 361%. The “I10 μM/Icontrol (mean ± SEM, %) GluN2D” value in experiment [5] is reported as 336%.

Turning to `CCOc1ccc(OC[C@@H]2c3ccc(OC(C)C)cc3CCN2C(=S)c2cccc(F)c2)cc1` [(S)-(−)-1180-154], the 50% effective concentration (EC50) in experiment [1] was less than 0.5 µM; in experiment [3] it was 0.46 µM; in experiment [6] (setting [12]), 0.47 µM. The Emax in experiment [1] (setting [9]) worked out at 213%; in experiment [3] (setting [11]) it was 163%; in experiment [6] (setting [13]), 190%. For the same compound, the “I30 μM/Icontrol (mean ± SEM, %) GluN2B” value in experiment [2] worked out at 206%. The “I30 μM/Icontrol (mean ± SEM, %) GluN2C” value in experiment [4] amounted to 153%. Moreover, the “I30 μM/Icontrol (mean ± SEM, %) GluN2D” value in experiment [5] is reported as 185%.

Take `COc1ccc(OC[C@@H]2c3ccc(OC(C)C)cc3CCN2C(=S)c2cccc(Cl)c2)cc1` [(S)-(−)-1180-163]: the EC50 in experiment [1] worked out at 0.28 µM; in experiment [3], 0.5 µM; in experiment [6] (setting [12]) it was 0.5 µM. Also, the Emax in experiment [1] (setting [9]) was 202%; in experiment [3] (setting [11]), 316%; in experiment [6] (setting [13]), 313%. In experiment [2], the “I10 μM/Icontrol (mean ± SEM, %) GluN2B” value is listed as 203%. In addition, in experiment [4], the “I10 μM/Icontrol (mean ± SEM, %) GluN2C” value is on record as 302%. Further, the “I10 μM/Icontrol (mean ± SEM, %) GluN2D” value in experiment [5] is 299%.

Broadly, the EC50 is the midpoint of the concentration-response curve.
